According to ChEMBL document CHEMBL1909046, “DrugMatrix in vitro pharmacology data”:

Legend:
[1] = biological target: T1, Alpha-2A adrenergic receptor (Homo sapiens, UniProt P08913); assay type: cell membranes, Sf9, Membrane; details: sf9; also: in other assays of this panel Not Active means under 50% inhibition at 10 µM
T1 sequence (P08913 whole entry): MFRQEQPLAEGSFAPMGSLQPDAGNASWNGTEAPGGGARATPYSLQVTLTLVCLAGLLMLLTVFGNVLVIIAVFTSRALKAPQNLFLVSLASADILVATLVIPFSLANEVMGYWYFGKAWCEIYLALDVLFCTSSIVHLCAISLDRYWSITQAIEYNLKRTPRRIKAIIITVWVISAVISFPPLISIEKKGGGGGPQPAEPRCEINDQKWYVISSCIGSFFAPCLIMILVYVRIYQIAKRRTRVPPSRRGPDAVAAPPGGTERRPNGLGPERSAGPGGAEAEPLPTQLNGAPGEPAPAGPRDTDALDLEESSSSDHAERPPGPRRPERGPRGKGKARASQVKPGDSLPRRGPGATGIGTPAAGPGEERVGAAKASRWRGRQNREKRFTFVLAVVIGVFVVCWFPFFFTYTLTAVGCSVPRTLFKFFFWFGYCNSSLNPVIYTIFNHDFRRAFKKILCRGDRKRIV

[2] = biological target: Aldo-keto reductase family 1 member B1 (Rattus norvegicus, UniProt P07943); assay type: tissue-based, Lens of camera-type eye;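 also: inhibition of aldose reductase enzyme activity, measured with DL-glyceraldehyde as the substrate; in other assays of this panel Not Active means under 50% inhibition at 10 µM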
[3] = DRUGMATRIX: Calcium Channel Type L, Dihydropyridine radioligand binding (ligand: [3H] Nitrendipine); assay type: cell membranes, Rattus norvegicus, Wistar, Cerebral cortex, Membrane; details: Not Active = under 50% inhibition at 10 µM
[4] = biological target: T2, 5-hydroxytryptamine receptor 2C (Homo sapiens, UniProt P28335); assay: DRUGMATRIX: Serotonin (5-Hydroxytryptamine) 5-HT2C radioligand binding (ligand: [3H] Mesulergine); assay type: cell membranes, CHO-K1, Membrane; details: cho-k1; Not Active = under 50% inhibition at 10 µM
T2 sequence (P28335 whole entry): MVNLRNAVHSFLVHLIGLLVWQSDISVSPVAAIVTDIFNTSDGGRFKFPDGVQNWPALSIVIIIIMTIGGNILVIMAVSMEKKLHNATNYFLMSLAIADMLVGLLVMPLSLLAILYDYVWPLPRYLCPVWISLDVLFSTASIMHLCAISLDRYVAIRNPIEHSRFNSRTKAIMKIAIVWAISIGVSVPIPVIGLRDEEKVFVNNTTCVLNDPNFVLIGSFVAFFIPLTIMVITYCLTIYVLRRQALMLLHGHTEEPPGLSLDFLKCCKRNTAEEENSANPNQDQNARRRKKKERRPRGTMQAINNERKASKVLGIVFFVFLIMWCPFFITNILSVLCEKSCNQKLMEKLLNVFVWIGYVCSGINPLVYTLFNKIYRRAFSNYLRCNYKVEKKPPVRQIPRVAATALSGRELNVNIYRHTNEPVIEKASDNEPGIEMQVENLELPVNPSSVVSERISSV

[5] = biological target: 5-hydroxytryptamine receptor 6 (Homo sapiens, UniProt P50406); assay type: cell membranes, HeLa, Membrane; details: hela; also: in other assays of this panel Not Active means under 50% inhibition at 10 µM
[6] = biological target: T3, 3-hydroxy-3-methylglutaryl-coenzyme A reductase (Homo sapiens, UniProt P04035); parameters: species or system Escherichia coli;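 also: enzyme inhibition assay of HMG-CoA reductase using radiolabeled [14C]HMG-CoA as substrate; in other assays of this panel Not Active means under 50% inhibition at 10 µM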
T3 sequence (P04035 whole entry): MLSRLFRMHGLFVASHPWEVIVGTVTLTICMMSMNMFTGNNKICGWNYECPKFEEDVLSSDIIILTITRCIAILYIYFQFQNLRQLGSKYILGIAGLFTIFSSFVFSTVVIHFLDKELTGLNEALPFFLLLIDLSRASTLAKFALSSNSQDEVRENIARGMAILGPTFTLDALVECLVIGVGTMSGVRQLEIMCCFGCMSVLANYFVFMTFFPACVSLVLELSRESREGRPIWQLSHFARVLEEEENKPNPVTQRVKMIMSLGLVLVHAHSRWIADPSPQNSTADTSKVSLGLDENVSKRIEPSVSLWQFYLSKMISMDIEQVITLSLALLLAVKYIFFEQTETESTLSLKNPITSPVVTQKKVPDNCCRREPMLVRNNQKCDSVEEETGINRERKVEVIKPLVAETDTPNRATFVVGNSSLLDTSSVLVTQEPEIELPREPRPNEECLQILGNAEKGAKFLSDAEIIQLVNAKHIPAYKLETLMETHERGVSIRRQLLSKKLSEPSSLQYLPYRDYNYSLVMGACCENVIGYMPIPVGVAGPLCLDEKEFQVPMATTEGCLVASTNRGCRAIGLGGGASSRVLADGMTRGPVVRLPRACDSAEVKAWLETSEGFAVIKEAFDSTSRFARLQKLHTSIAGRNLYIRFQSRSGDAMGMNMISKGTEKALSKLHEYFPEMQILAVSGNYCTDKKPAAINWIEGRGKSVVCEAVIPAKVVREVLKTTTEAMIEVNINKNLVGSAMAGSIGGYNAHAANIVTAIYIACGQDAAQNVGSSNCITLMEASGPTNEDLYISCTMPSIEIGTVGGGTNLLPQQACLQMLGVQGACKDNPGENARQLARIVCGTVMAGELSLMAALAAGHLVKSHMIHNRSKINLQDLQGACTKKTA

[7] = biological target: Melanocortin receptor 4 (Homo sapiens, UniProt P32245); assay type: cell membranes, Membrane; details: hek293; also: in other assays of this panel Not Active means under 50% inhibition at 10 µM
[8] = biological target: T4, Muscarinic acetylcholine receptor M2 (Homo sapiens, UniProt P08172); assay type: cell membranes, CHO-K1, Membrane; details: cho-k1; also: in other assays of this panel Not Active means under 50% inhibition at 10 µM
T4 sequence (P08172 whole entry): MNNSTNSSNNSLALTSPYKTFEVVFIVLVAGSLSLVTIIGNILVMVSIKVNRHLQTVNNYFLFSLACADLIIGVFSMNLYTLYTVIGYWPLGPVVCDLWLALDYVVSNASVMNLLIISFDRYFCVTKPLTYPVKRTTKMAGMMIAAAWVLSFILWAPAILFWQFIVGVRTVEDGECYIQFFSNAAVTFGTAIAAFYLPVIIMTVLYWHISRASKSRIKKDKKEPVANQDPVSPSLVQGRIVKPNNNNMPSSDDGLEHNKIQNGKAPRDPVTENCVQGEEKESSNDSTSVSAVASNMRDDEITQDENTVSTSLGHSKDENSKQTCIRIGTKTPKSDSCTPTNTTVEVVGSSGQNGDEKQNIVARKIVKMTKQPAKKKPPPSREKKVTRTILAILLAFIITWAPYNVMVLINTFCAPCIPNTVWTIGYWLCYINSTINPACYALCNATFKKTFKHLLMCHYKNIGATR

[9] = biological target: Tyrosine-protein kinase Fyn (Homo sapiens, UniProt P06241); assay: biochemical; assay type: cell-based, Insect cells; details: insect cells
[10] = biological target: Cytochrome P450 2C19 (Homo sapiens, UniProt P33261); details: bti-tn-5b1-4; also: in other assays of this panel Not Active means under 50% inhibition at 10 µM
[11] = biological target: Cytochrome P450 2E1 (Homo sapiens, UniProt P05181); details: bti-tn-5b1-4; also: in other assays of this panel Not Active means under 50% inhibition at 10 µM
Cytochrome P450 2E1, sequence (P05181 whole entry): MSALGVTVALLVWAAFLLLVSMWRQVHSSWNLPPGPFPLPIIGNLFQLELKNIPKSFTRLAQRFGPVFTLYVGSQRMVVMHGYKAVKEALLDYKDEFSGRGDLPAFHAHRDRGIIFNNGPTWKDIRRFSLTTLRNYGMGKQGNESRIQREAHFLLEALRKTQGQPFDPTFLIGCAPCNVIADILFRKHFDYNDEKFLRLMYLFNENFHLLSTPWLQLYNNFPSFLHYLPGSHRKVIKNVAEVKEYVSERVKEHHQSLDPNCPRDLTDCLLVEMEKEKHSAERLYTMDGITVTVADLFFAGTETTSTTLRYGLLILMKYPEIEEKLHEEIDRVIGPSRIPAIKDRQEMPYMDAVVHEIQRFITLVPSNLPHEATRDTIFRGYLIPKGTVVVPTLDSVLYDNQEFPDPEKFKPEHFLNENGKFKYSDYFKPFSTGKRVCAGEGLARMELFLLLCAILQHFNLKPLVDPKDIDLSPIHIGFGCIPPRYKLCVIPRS

Melanocortin receptor 4, sequence (P32245 whole entry): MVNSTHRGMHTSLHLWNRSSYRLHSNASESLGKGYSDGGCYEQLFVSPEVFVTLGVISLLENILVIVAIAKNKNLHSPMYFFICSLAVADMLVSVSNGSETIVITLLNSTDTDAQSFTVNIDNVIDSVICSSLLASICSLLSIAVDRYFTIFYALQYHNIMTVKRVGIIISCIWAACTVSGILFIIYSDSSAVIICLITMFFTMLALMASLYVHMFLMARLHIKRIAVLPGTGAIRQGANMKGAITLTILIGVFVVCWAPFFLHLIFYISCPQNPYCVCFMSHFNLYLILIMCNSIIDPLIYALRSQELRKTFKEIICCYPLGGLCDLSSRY
Tyrosine-protein kinase Fyn, sequence (P06241 whole entry): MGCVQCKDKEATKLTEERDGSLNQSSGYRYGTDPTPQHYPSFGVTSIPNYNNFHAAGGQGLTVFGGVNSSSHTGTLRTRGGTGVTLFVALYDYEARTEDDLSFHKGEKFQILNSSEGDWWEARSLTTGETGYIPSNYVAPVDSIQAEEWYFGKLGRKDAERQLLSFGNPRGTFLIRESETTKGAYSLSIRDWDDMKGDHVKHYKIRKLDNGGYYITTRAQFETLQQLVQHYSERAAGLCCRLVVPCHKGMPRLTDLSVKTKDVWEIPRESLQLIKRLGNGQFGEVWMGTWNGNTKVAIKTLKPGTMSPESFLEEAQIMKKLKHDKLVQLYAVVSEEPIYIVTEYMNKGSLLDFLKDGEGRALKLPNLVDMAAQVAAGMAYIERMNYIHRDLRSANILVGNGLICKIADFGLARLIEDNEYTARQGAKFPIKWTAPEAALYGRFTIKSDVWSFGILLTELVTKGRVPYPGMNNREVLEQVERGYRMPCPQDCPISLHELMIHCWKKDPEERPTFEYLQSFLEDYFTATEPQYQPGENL
5-hydroxytryptamine receptor 6, sequence (P50406 whole entry): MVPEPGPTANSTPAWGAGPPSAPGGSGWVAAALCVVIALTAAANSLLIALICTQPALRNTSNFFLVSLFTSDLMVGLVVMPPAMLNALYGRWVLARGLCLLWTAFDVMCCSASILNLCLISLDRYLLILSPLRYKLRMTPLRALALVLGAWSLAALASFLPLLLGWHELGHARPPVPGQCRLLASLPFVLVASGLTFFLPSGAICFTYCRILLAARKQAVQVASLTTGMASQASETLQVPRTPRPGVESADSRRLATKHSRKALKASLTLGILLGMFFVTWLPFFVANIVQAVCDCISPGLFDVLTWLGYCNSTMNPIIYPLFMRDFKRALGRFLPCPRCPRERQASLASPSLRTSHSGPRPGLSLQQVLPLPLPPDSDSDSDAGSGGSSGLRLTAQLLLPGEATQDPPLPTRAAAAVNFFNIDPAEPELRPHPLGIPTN
Cytochrome P450 2C19, sequence (P33261 whole entry): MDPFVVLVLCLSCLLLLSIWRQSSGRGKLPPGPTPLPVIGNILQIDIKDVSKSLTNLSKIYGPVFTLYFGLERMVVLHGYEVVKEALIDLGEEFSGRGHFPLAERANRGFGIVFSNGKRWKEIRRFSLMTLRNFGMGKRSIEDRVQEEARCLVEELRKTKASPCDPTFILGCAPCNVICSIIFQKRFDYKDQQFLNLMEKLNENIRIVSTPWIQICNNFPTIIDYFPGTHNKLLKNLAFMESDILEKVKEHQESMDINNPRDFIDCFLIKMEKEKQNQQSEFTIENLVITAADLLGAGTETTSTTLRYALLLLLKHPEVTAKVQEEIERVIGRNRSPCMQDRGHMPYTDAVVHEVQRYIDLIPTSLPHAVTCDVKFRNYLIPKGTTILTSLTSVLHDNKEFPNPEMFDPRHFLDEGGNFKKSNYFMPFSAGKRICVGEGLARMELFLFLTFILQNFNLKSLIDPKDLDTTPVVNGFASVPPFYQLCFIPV

Brc1ccccc1 [BROMOBENZENE]
Not Active: IC50 [1] | IC50 [2] | IC50 [3] | Ki [3] | IC50 [4] | IC50 [5] | IC50 [6] | IC50 [7] | IC50 [8] | IC50 [9] | IC50 [10] | Ki [10] | IC50 [11] | Ki [11]

COc1ccc2cc(CC(=O)O)ccc2c1
Not Active: IC50 [1] | IC50 [2] | IC50 [3] | Ki [3] | IC50 [4] | IC50 [5] | IC50 [6] | IC50 [7] | IC50 [8] | IC50 [9] | IC50 [10] | Ki [10] | IC50 [11] | Ki [11]

CCCSc1ccc2nc(NC(=O)OC)[nH]c2c1 [ALBENDAZOLE]
Not Active: IC50 [1] | IC50 [2] | IC50 [3] | Ki [3] | IC50 [4] | IC50 [5] | IC50 [6] | IC50 [7] | IC50 [8] | IC50 [9] | IC50 [10] | Ki [10] | IC50 [11] | Ki [11]

OCc1ccccc1 [BENZYL ALCOHOL]
Not Active: IC50 [1] | IC50 [2] | IC50 [3] | Ki [3] | IC50 [4] | IC50 [5] | IC50 [6] | IC50 [7] | IC50 [8] | IC50 [9] | IC50 [10] | Ki [10] | IC50 [11] | Ki [11]

O=C(O)c1cn(C2CC2)c2cc(N3CCNCC3)c(F)cc2c1=O [CIPROFLOXACIN]
Not Active: IC50 [1] | IC50 [2] | IC50 [3] | Ki [3] | IC50 [4] | IC50 [5] | IC50 [6] | IC50 [7] | IC50 [8] | IC50 [9] | IC50 [11] | Ki [11]

Nc1nc(=O)[nH]cc1F [FLUCYTOSINE]
Not Active: IC50 [1] | IC50 [2] | IC50 [3] | Ki [3] | IC50 [4] | IC50 [5] | IC50 [6] | IC50 [7] | IC50 [8] | IC50 [9] | IC50 [11] | Ki [11]

CC(=O)O[C@]1(C(C)=O)CC[C@H]2[C@@H]3C=C(Cl)C4=CC(=O)CC[C@]4(C)[C@H]3CC[C@@]21C [CHLORMADINONE ACETATE]
Not Active: IC50 [1] | IC50 [2] | IC50 [3] | Ki [3] | IC50 [4] | IC50 [5] | IC50 [6] | IC50 [7] | IC50 [8] | IC50 [9] | IC50 [11] | Ki [11]

Cn1cnc([N+](=O)[O-])c1Sc1ncnc2nc[nH]c12 [AZATHIOPRINE]
Not Active: IC50 [1] | IC50 [2] | IC50 [3] | Ki [3] | IC50 [4] | IC50 [5] | IC50 [6] | IC50 [7] | IC50 [8] | IC50 [9] | IC50 [11] | Ki [11]

O=C1OC2(c3ccc(O)cc3Oc3cc(O)ccc32)c2ccccc21 [FLUORESCEIN]
Not Active: IC50 [1] | IC50 [2] | IC50 [3] | Ki [3] | IC50 [4] | IC50 [5] | IC50 [6] | IC50 [7] | IC50 [8] | IC50 [9] | IC50 [11] | Ki [11]

C=C(C)[C@@H]1[C@H]2OC(=O)[C@@H]1[C@]1(O)C[C@H]3O[C@]34C(=O)O[C@H]2[C@]14C [PICROTOXININ]
Not Active: IC50 [1] | IC50 [2] | IC50 [3] | Ki [3] | IC50 [4] | IC50 [5] | IC50 [6] | IC50 [7] | IC50 [8] | IC50 [9] | IC50 [11] | Ki [11]

CCCCOC(=O)c1ccc(N)cc1 [BUTAMBEN]
Not Active: IC50 [1] | IC50 [2] | IC50 [3] | Ki [3] | IC50 [4] | IC50 [5] | IC50 [6] | IC50 [7] | IC50 [8] | IC50 [9] | IC50 [11] | Ki [11]
